Assay results taken from publication PMC5329131 (Biochimica et biophysica acta, 2017).
Where no end group is shown, it is not given here.

How the values were obtained:
[1] = target: RyR1 (Oryctolagus cuniculus) (UniProt P11716); assay: [3H]ryanodine binding; settings: cited from earlier work
RyRs = settings: cited from earlier work
[2] = tested on: rabbit skeletal heavy SR vesicles (RyR1); assay: Ca2+ release from heavy SR vesicles; assay type: biochemical; settings: for Ca2+ release by vesicles (quality control): response to caffeine, 4-cmc and A23187; for Ca2+ release by RyR agonists vs A23187: same vesicles, data not shown
SR Ca2+ release (RyR1) = settings: ref Xiao et al., 2016; cited from earlier work
RyR1 = settings: alanine scanning of Imperacalcin; ref Lee et al., 2004; cited from earlier work

Chain of UniProt P11716 (P11716 whole entry): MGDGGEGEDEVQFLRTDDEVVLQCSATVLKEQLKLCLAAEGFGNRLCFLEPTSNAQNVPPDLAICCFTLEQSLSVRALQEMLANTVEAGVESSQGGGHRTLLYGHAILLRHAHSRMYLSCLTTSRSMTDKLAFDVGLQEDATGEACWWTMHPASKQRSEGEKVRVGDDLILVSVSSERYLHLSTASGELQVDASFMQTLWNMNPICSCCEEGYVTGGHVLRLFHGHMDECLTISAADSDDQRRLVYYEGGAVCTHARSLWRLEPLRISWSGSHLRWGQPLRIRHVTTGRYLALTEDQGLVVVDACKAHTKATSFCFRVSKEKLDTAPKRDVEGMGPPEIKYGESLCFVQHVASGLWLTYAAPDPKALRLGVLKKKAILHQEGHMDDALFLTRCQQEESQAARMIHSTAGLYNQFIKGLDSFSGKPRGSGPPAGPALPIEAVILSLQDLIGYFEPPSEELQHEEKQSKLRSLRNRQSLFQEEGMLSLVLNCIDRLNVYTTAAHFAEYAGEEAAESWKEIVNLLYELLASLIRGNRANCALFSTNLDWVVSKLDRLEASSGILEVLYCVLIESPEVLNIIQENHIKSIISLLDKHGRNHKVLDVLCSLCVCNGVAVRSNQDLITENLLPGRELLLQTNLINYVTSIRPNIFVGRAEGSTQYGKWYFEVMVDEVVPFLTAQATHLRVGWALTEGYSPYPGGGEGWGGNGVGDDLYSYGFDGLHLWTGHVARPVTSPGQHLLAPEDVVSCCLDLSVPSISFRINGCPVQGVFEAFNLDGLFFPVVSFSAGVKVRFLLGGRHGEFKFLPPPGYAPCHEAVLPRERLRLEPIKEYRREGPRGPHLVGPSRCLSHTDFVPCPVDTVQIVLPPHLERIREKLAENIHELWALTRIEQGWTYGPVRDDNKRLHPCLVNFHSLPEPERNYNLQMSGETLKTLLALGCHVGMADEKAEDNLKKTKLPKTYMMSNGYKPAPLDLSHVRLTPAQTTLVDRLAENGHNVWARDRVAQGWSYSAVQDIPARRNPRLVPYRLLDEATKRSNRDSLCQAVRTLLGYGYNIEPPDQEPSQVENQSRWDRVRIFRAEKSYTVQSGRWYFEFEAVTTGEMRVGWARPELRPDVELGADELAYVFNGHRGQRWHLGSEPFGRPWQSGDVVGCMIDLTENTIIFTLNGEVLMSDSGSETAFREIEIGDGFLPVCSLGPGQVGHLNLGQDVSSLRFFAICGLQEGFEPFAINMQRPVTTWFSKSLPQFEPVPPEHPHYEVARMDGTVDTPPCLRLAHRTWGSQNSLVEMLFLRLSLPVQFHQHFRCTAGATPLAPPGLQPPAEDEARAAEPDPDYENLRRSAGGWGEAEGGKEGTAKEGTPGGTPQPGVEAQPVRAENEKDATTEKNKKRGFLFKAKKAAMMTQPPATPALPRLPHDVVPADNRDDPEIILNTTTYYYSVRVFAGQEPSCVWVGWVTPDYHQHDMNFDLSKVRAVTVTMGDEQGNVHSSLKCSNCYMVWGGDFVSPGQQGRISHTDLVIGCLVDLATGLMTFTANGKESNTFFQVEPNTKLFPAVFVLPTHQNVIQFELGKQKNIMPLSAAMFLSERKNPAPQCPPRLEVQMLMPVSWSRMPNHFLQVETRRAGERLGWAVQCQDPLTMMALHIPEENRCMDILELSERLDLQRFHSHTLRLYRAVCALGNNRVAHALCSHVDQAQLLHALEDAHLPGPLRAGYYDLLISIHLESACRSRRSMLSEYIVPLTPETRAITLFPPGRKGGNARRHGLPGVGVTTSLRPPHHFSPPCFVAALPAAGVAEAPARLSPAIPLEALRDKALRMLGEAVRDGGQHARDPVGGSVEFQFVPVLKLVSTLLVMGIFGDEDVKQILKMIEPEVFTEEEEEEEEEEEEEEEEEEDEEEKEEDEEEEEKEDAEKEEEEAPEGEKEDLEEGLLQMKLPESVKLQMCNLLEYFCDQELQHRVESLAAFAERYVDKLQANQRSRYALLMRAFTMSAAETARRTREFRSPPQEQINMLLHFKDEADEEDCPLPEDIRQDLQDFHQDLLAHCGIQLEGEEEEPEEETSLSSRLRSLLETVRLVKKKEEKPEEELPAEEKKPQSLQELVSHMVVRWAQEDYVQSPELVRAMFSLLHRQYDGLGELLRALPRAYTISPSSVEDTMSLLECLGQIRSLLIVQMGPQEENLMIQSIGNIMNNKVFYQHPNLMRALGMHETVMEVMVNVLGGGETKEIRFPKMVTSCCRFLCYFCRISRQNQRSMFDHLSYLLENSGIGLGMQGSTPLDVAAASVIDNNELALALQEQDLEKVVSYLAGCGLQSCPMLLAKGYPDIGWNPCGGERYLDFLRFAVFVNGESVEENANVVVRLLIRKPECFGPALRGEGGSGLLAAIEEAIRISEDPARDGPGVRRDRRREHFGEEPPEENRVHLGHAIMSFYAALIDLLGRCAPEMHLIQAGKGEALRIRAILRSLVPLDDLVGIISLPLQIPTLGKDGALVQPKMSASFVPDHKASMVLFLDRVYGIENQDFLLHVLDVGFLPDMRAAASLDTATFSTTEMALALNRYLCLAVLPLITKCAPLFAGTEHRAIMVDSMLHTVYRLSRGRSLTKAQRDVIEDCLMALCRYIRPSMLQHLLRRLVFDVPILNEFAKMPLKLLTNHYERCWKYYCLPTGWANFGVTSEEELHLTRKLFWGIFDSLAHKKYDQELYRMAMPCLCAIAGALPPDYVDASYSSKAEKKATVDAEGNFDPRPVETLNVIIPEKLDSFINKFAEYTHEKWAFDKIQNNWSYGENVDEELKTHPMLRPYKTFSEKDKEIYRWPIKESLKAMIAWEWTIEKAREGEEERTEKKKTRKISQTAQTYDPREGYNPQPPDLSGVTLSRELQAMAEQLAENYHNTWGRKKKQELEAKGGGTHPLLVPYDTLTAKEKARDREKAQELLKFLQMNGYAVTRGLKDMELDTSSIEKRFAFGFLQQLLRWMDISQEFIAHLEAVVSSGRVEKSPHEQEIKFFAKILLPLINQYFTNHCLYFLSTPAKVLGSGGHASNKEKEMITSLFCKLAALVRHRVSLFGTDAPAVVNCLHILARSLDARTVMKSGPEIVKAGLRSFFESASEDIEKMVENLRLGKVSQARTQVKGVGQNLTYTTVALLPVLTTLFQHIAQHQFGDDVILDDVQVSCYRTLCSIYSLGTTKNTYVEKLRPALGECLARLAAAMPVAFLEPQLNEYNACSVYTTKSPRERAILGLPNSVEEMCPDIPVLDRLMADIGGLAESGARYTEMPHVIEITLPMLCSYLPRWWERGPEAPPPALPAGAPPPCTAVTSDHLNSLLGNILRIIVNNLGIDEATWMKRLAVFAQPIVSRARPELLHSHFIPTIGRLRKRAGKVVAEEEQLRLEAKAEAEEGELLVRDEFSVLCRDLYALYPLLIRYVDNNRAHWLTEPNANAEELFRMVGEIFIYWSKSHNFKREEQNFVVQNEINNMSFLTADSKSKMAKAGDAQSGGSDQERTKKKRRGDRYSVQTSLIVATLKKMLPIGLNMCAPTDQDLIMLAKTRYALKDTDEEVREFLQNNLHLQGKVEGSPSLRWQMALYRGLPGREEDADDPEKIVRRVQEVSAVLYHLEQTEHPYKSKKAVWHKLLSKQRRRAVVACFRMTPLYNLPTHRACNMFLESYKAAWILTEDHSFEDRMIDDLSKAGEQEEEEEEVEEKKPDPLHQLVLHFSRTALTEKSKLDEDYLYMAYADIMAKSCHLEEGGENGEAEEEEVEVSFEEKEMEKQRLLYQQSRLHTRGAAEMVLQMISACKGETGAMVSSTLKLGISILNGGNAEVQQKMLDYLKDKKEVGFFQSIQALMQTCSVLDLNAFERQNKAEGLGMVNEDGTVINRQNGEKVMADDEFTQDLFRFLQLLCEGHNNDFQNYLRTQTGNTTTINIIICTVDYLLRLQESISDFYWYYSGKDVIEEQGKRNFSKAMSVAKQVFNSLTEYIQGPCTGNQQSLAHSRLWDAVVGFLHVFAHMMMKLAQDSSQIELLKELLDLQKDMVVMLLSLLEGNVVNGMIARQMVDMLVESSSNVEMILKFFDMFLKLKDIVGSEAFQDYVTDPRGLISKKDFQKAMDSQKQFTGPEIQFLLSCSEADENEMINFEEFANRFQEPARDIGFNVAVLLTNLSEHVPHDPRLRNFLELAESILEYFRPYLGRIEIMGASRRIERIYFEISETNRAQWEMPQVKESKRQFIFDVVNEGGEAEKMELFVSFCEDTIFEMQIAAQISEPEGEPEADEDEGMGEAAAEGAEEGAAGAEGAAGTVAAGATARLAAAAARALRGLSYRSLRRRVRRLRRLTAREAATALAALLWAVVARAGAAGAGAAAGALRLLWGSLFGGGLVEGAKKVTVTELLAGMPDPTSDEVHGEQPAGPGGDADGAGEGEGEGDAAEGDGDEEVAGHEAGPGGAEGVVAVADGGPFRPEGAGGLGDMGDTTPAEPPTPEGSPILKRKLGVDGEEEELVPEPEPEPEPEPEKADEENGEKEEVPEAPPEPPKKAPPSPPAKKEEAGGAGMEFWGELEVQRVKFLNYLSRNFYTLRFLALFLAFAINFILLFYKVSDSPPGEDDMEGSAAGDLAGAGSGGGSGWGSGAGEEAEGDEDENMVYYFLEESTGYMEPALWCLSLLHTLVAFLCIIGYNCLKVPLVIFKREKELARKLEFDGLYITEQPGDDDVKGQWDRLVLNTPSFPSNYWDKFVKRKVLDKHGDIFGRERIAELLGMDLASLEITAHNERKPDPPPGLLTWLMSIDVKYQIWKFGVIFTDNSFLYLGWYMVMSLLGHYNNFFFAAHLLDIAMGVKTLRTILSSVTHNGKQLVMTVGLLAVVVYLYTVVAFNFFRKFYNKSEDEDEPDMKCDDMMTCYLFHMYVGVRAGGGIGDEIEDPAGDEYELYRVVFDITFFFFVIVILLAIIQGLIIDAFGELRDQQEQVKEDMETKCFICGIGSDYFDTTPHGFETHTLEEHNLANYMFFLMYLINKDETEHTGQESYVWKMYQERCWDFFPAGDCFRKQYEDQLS

Compound: Vejocalcin (from UniProt P0DPT1)
- Kd [1]: 3.7 nM

Compound: Hadrucalcin (from UniProt B8QG00)
- Kd [1]: 14.8 nM

Compound: Opicalcin1 (from UniProt P60252)
- Kd [1]: 0.3 nM

Compound: Imperacalcin: 33-amino acid calcin from Pandinus imperator, UniProt P59868 (GDCLPHLKRCKADNDCCGKKCKRRGTNAEKRCR; ends and bridges not checked; cysteine pairing not given here; UniProt P59868 1-33, looked up)
- binding site by single RyR1 channel analysis (RyRs; ref Tripathy et al., 1998): enters the channel vestibule and binds to a single site located within the ion conduction pathway and close to the voltage drop of the channel
- effect on RyR gating (RyRs; ref not given): increases their activity by inducing the appearance of a long-lived subconductance state

Compound: Maurocalcin (from UniProt P60254)
- Kd [1]: 26.4 nM

Compound: Cn1c(=O)c2c(ncn2C)n(C)c1=O [Caffeine, caffeine]
- Ca2+ release by vesicles (quality control) [2]: equivalent amount of Ca^2+
- Ca2+ release by RyR agonists vs A23187 [2]: release roughly equivalent levels of Ca^2+ in these vesicles as that emptied by A23187

Compound: Opicalcin2 (from UniProt P60253)
- Kd [1]: 3.2 nM

Compound: CNc1ccc2oc(C[C@H]3O[C@@]4(CC[C@H]3C)O[C@H]([C@H](C)C(=O)c3ccc[nH]3)[C@H](C)C[C@H]4C)nc2c1C(=O)O [A23187]
- Ca2+ release by vesicles (quality control) [2]: equivalent amount of Ca^2+

Compound: Imperacalcin (from UniProt P59868)
- Kd [1]: 8.7 nM

Compound: Urocalcin (from UniProt L0GBR1)
- Kd [1]: 376 nM

Compound: Hemicalcin (from UniProt A0A1L4BJ42)
- Kd [1]: 6.9 nM

Compound: Opicalcin2: calcin from Opistophthalmus carinatus, UniProt P60253 (GDCLPHLKRCKENNDCCSKKCKRRGANPEKRCR; ends and bridges not checked; cysteine pairing not given here; UniProt P60253 34-66, looked up)
- binding affinity vs ability to stimulate Ca2+ release (SR Ca2+ release (RyR1)): strong binding affinity but weaker ability to stimulate Ca^2+ release

Compound: N14A: alanine-scanning mutant N14A of Imperacalcin (GDCLPHLKRCKADADCCGKKCKRRGTNAEKRCR; ends and bridges not checked; cysteine pairing not given here; UniProt P59868 1-33, looked up, variant N14A)
- influence of mutation on binding affinity (RyR1): almost no influence on binding affinity

Compound: Cc1cc(O)ccc1Cl [4-cmc]
- Ca2+ release by vesicles (quality control) [2]: equivalent amount of Ca^2+
- Ca2+ release by RyR agonists vs A23187 [2]: release roughly equivalent levels of Ca^2+ in these vesicles as that emptied by A23187
